We go through nine compounds from patent publication US20240148821A1, “PHARMACEUTICAL USE OF CYCLIC PEPTIDE COMPOUND” (CHUGAI SEIYAKU KABUSHIKI KAISHA, priority 2021, published 2024).

Numbered stars: 1 amine (or outer) side, 2 acyl side, 3 side chain; on linkers, the order of the positions; unused ones are H or OH. Bridge positions count the residues as written; N and C are the ends. Square brackets hold non-standard residues; d marks the D form. Peptide text beside a SMILES is read from it. * marks the point of attachment. hPhe(3,5-F2-4-CF3) = N[C@@H](CCc1cc(F)c(C(F)(F)F)c(F)c1)C(=O)O; NMeAbu(3,3-F2-piperidino) = CN[C@@H](CCN1CCCC(F)(F)C1)C(=O)O; hPhe(3-Cl-4-CF3) = N[C@@H](CCc1ccc(C(F)(F)F)c(Cl)c1)C(=O)O; X49 = CN([C@@H](Cc1cccc(OC(F)(F)F)c1)C(=O)[*:2])[*:1]; NMeAbu(4,4,4-F3) = CN[C@@H](CC(F)(F)F)C(=O)O; NMePhe(4-Cl) = CN[C@@H](Cc1ccc(Cl)cc1)C(=O)O; NMePhe(4-Me) = CN[C@@H](Cc1ccc(C)cc1)C(=O)O; NMePhe(3-F) = CN[C@@H](Cc1cccc(F)c1)C(=O)O; Leu(4,5-dehydro) = C=C(C)C[C@H](N)C(=O)O; NMeGly(cPent) = CN[C@H](C(=O)O)C1CCCC1; Phe(3-I) = N[C@@H](Cc1cccc(I)c1)C(=O)O; Pro(4,4-F2) = O=C(O)[C@@H]1CC(F)(F)CN1; NMeCha = CN[C@@H](CC1CCCCC1)C(=O)O; NMeChg = CN[C@H](C(=O)O)C1CCCCC1; NMeI = CC[C@H](C)[C@H](NC)C(=O)O; NMeD = CN[C@@H](CC(=O)O)C(=O)O; NMeL = CN[C@@H](CC(C)C)C(=O)O; αMeL = CC(C)C[C@](C)(N)C(=O)O; NMeNva = CCC[C@H](NC)C(=O)O; NMeV = CN[C@H](C(=O)O)C(C)C; d(β3hA) = C[C@@H](N)CC(=O)O; NMeA = CN[C@@H](C)C(=O)O; NMeAib = CNC(C)(C)C(=O)O; Nle = CCCC[C@H](N)C(=O)O; Piperidide = C1CCN(*)CC1; Pyrrolidide = C1CCN(*)C1; Ac5c = NC1(C(=O)O)CCCC1; Aze = O=C(O)[C@@H]1CCN1; Sar = CNCC(=O)O

The test system of the assay is Human pancreatic cancer cell line AsPC-1 (G12D mutation Kras). Kind of assay: AsPC-1 cell growth inhibition (AsPC-1 CGI). Type of assay: cell-based. Conditions: read-out: AsPC-1 cell growth inhibition, 50% growth inhibitory concentration (IC50 value); 96 hours, CellTiter-Glo, values classified in ranges. On the technique in general: ATP-based viability assays read luminescence as a measure of living cells.
Description: Test compounds were serially dilated with dimethyl sulfoxide, and 200 nL was then dispensed to a U-bottom 96-well plate using Labcyte Echo. […] The cell suspension was dispensed to a. plate containing a test compound at 100 μL per well and incubated at 37° C. in a 5% carbon dioxide gas incubator. 96 hours later, 80 μL of CellTiter-Glo (Promega) was added to each well and fluorescence was measured.
Consider `CCC[C@H]1C(=O)N[C@@H]([C@@H](C)CC)C(=O)N(C)[C@@H](C)C(=O)N2CC[C@H]2C(=O)N(C)[C@@H](CC2CCCCC2)C(=O)N(C)CC(=O)N[C@@H](CCc2ccc(C(F)(F)F)c(Cl)c2)C(=O)N2CCC[C@H]2C(=O)NC2(CCCC2)C(=O)N(C)[C@@H](C2CCCC2)C(=O)N(C)[C@H](C(=O)N2CCCCC2)CC(=O)N1C` [Compound 391] ([NMeNva]I[NMeA][Aze][NMeCha][Sar][hPhe(3-Cl-4-CF3)]P[Ac5c][NMeGly(cPent)][NMeD]-Piperidide; lactam N-11), for which the IC50 is not above 20 nM.

For `CC[C@H](C)[C@@H]1NC(=O)[C@H](CC(C)C)N(C)C(=O)C[C@@H](C)NC(=O)[C@H](C(C)C)N(C)C(=O)[C@](C)(CC(C)C)NC(=O)[C@@H]2CCCN2C(=O)[C@H](CCc2ccc(C(F)(F)F)c(Cl)c2)NC(=O)CN(C)C(=O)[C@H](CC2CCCCC2)N(C)C(=O)CN(C)C(=O)CN(C)C1=O` [Compound 705] (cyclo(I[Sar][Sar][NMeCha][Sar][hPhe(3-Cl-4-CF3)]P[αMeL][NMeV][d(β3hA)][NMeL])), the IC50 was more than 500 nM.

For the compound `C=C(C)C[C@@H]1NC(=O)[C@H](Cc2cccc(I)c2)NC(=O)CN(C)C(=O)[C@H](Cc2ccc(Cl)cc2)N(C)C(=O)[C@@H]2CCN2C(=O)[C@H](C)N(C)C(=O)[C@H]([C@@H](C)CC)NC(=O)[C@H](CC(C)C)N(C)C(=O)C[C@@H](C(=O)N2CCCCC2)N(C)C(=O)[C@H](CC(C)C)NC(=O)C(C)(C)N(C)C1=O` [Compound 1429] ([NMeL]I[NMeA][Aze][NMePhe(4-Cl)][Sar][Phe(3-I)][Leu(4,5-dehydro)][NMeAib]L[NMeD]-Piperidide; lactam N-11), the IC50 is more than 500 nM.

As to `CC[C@H](C)[C@@H]1NC(=O)[C@H](C)N(C)C(=O)C[C@@H](C)NC(=O)[C@H](C2CCCC2)N(C)C(=O)C2(CCCC2)NC(=O)[C@@H]2CCCN2C(=O)[C@H](CCc2ccc(C(F)(F)F)c(Cl)c2)NC(=O)CN(C)C(=O)[C@H](Cc2cccc(F)c2)N(C)C(=O)[C@@H]2CCCN2C(=O)CN(C)C1=O` [Compound 194] (cyclo([Ac5c][NMeGly(cPent)][d(β3hA)][NMeA]I[Sar]P[NMePhe(3-F)][Sar][hPhe(3-Cl-4-CF3)]P)), the IC50 is more than 500 nM.

Turning to `CCCC[C@@H]1NC(=O)[C@H](Cc2cccc(I)c2)NC(=O)CN(C)C(=O)[C@H](Cc2ccc(Cl)cc2)N(C)C(=O)CN(C)C(=O)CN(C)C(=O)[C@H]([C@@H](C)CC)NC(=O)[C@H](CC(C)C)N(C)C(=O)C[C@@H](C(=O)N2CCCCC2)N(C)C(=O)[C@H](CC(C)C)NC(=O)[C@H](Cc2cccc(OC(F)(F)F)c2)N(C)C1=O` [Compound 143] ([NMeL]I[Sar][Sar][NMePhe(4-Cl)][Sar][Phe(3-I)][Nle][X49]L[NMeD]-Piperidide; lactam N-11), the IC50 is more than 500 nM.

As for `CC[C@H](C)[C@@H]1NC(=O)[C@H](CC(F)(F)F)N(C)C(=O)C[C@@H](C(=O)N2CCCC2)N(C)C(=O)[C@H](C2CCCCC2)N(C)C(=O)C2(CCCC2)NC(=O)[C@@H]2CC(F)(F)CN2C(=O)[C@H](CCc2cc(F)c(C(F)(F)F)c(F)c2)NC(=O)CN(C)C(=O)[C@H](CC2CCCCC2)N(C)C(=O)CN(C)C(=O)CN(C)C1=O` [Compound 1281] ([NMeAbu(4,4,4-F3)]I[Sar][Sar][NMeCha][Sar][hPhe(3,5-F2-4-CF3)][Pro(4,4-F2)][Ac5c][NMeChg][NMeD]-Pyrrolidide; lactam N-11), the IC50 was not above 20 nM.

`CC(C)C[C@H]1C(=O)N[C@@H](CO)C(=O)N(C)CC(=O)N(C)CC(=O)N(C)[C@@H](CC2CCCCC2)C(=O)N(C)CC(=O)N[C@@H](CCc2ccc(C(F)(F)F)c(Cl)c2)C(=O)N2CCC[C@H]2C(=O)NC2(CCCC2)C(=O)N(C)[C@@H](C2CCCCC2)C(=O)N(C)[C@H](C(=O)N2CCCCC2)CC(=O)N1C` [Compound 1799] ([NMeL]S[Sar][Sar][NMeCha][Sar][hPhe(3-Cl-4-CF3)]P[Ac5c][NMeChg][NMeD]-Piperidide; lactam N-11): the IC50 is more than 500 nM.

As to `CC[C@H](C)[C@@H]1NC(=O)[C@H](CC(C)C)N(C)C(=O)C[C@@H](C(=O)N(C)C)N(C)C(=O)[C@H]([C@@H](C)CC)N(C)C(=O)[C@H](C(C)C)NC(=O)[C@H](CCN2CCCC(F)(F)C2)N(C)C(=O)[C@H](CCc2ccc(C(F)(F)F)c(Cl)c2)NC(=O)CN(C)C(=O)[C@H](Cc2ccc(C)cc2)N(C)C(=O)[C@@H]2CCN2C(=O)[C@H](C)N(C)C1=O` [Compound 379] ([NMeL]I[NMeA][Aze][NMePhe(4-Me)][Sar][hPhe(3-Cl-4-CF3)][NMeAbu(3,3-F2-piperidino)]V[NMeI][NMeD]-NMe2; lactam N-11), the IC50 is more than 500 nM.

`CC[C@H](C)[C@@H]1NC(=O)[C@H](CC(C)C)N(C)C(=O)C[C@@H](C(=O)N2CCCCC2)N(C)C(=O)[C@H]([C@@H](C)CC)N(C)C(=O)C2(CCCC2)NC(=O)[C@@H]2CCCN2C(=O)[C@H](CCc2ccc(C(F)(F)F)c(Cl)c2)NC(=O)CN(C)C(=O)[C@H](Cc2ccc(C)cc2)N(C)C(=O)CN(C)C(=O)CN(C)C1=O` [Compound 1649] ([NMeL]I[Sar][Sar][NMePhe(4-Me)][Sar][hPhe(3-Cl-4-CF3)]P[Ac5c][NMeI][NMeD]-Piperidide; lactam N-11): the IC50 is not above 20 nM.
